Data as given in US20190016697A1, “CONFIGURATIONAL STEREOISOMER OF DIFETHIALONE, COMPOSITION AND RODENTICIDE BAIT COMPRISING SAME, AND METHOD FOR CONTROLLING TARGET RODENT PESTS” (priority 2015, published 2019).
Like-named read-outs stand apart in the source and are kept apart here.

Format: in vivo, Rattus norvegicus
Settings: about 3.4 mg difethialone per kg per os (homo/hetero 4/6, each racemic), mean of six male and female rats, daily vitamin K1
Protocol: C. Extraction of Difethialone from the Liver of Rats Treated with Difethialone for the Purpose of Analysis of the Various Enantiomers of Difethialone
About 0.525 g (±0.025 g) of rat liver is weighed out accurately and placed in a 50 mL polypropylene tube. 10 mL of acetone are added and the suspension is homogenized using an Ultra-Turrax® homogenizer/disperser for a time of about 30 seconds. The homogenizer/disperser shaft is rinsed with hot water and then twice with 20 mL of acetone in a polypropylene tube. The homogenate is centrifuged for 5 minutes at a centrifugation speed of 3000 rpm (revolutions per minute). The supernatant is collected and transferred into a test tube. The sample is subjected to evaporation under a stream of nitrogen (N2) at a temperature of 40° C. so as to form a dry extract.
1 mL of acetonitrile is added to the tube containing the dry extract so as to dissolve it. The acetonitrile solution is washed twice successively with 1 mL of hexane. The lipid-free extract is dried under a stream of nitrogen (N2) at a temperature of 40° C. and is then taken up in 0.5 mL of methanol and dissolved by vortex stirring. 0.5 mL of ultra-pure (Milli-Q) water is then added. The sample is vortex-homogenized.
1 mL of dichloromethane (CH2Cl2), then 1 mL of methanol (CH3OH), then 1 mL of ultra-pure (Milli-Q) water are passed through an Oasis HLB 1 cc cartridge (WAT094225, Waters). The lipid-free liver extract (1 mL MeOH/Milli-Q H2O) containing difethialone is then loaded onto the top of the preconditioned cartridge. The liver extract penetrates through the cartridge by gravity on contact with the solid phase of the cartridge. 1 mL of washing solution formed from methanol (CH3OH) and ultra-pure water (H2O) in a 90/10 volume proportion is loaded onto the top of the cartridge. The cartridge is dried by suction under vacuum connected to the bottom of the cartridge. 1 mL of eluting solution formed from dichloromethane (CH2Cl2) and methanol (CH3OH) in a 90/10 volume proportion is then loaded onto the top of the cartridge and an eluate comprising difethialone is collected at the bottom of the cartridge. The solvent of the eluate is evaporated off under a stream of nitrogen (N2) at a temperature of 40° C. The sample is taken up in 0.5 mL of acetonitrile (NC-CH3) and the acetonitrile solution containing difethialone is filtered through a 0.2 μm filter.
The acetonitrile solution containing difethialone is analysed by high-pressure liquid chromatography on a LUX® Cellulose-3 chiral column (150×2 mm, particle size of 3 μm) (Phenomenex, Le Pecq, France) as described in point A2) above. The retention time value (t1) of the laevorotatory enantiomer of said homo-stereoisomer of difethialone according to the invention is between 7.8 minutes and 8.4 minutes (the maximum value of the peak corresponding to the […] enantiomer of said homo-stereoisomer being about 8.1 minutes, as described in FIG. 1), depending on the operating conditions, especially depending on the column temperature conditions. The retention time value (t4) of the dextrorotatory enantiomer of said homo-stereoisomer is between 13.3 minutes and 15.1 minutes (the maximum value of the peak corresponding to the […] enantiomer of said homo-stereoisomer being about 14.4 minutes), depending on the operating conditions, especially depending on the column temperature conditions. The retention time value (t3) of the dextrorotatory enantiomer of said hetero-stereoisomer of difethialone is between 11.2 minutes and 12.3 minutes (the maximum value of the peak corresponding to the dextrorotatory enantiomer of said hetero-stereoisomer being about 11.7 minutes), depending on the operating conditions, especially depending on the column temperature conditions. […]

Row | Compound | Hepatic content (4 hours after tube-feeding) [ng/g] | Hepatic content (9 hours after tube-feeding) [ng/g] | Hepatic content (24 hours after tube-feeding) [ng/g] | Hepatic content (48 hours after tube-feeding) [ng/g] | Hepatic content (120 hours after tube-feeding) [ng/g] | Hepatic content (168 hours after tube-feeding) [ng/g] | Hepatic content (216 hours after tube-feeding) [ng/g]
1 | O=c1sc2ccccc2c(O)c1C1CC(c2ccc(-c3ccc(Br)cc3)cc2)Cc2ccccc21 (centres unmarked) [DFN-Hetero-dextro] | 10589.5 | 12155.5 | 8102 | 7974.5 | 5431.5 | 3011 | 4030.5
2 | O=c1sc2ccccc2c(O)c1C1CC(c2ccc(-c3ccc(Br)cc3)cc2)Cc2ccccc21 (centres unmarked) [DFN-Hetero-laevo] | 5380.5 | 5869.5 | 3613.5 | 2804 | 1211 | 392.5 | 545
